From ChEMBL document CHEMBL1148394, “Design, synthesis, and in vitro biological evaluation of small molecule inhibitors of estrogen receptor alpha coactivator binding” (J Med Chem, 2004)

Target: Estrogen receptor (Homo sapiens, UniProt Q92731+P03372)
Experiment: Binding affinity towards estrogen receptor was determined
Format: protein assay

Row | Ki | SMILES
1 | > 1000 µM | CC(C)CC[C@H]1S[C@@H](CCC(C)C)S[C@@H](CCC(C)C)S1
2 | 590 µM | CC(C)CNc1nc(NCC(C)C)nc(NCC(C)C)n1
3 | 410 µM | CC(C)CCc1nc(NCC(C)C)nc(N(CC(=O)O)C(C)C)n1
4 | 240 µM | c1ccc(CNc2nc(NCc3ccccc3)nc(NCc3ccccc3)n2)cc1
5 | 290 µM | CCCNc1nc(NCCC)nc(NCCC)n1
6 | 290 µM | CCCCCCCNc1nc(NCCCCCCC)nc(NCCCCCCC)n1
7 | > 1000 µM | CC(C)CCNCCc1ccc2ccc(CCNCCC(C)C)cc2c1
8 | > 1000 µM | CCC(C)CNCCc1ccc2ccc(CCNCC(C)CC)cc2c1 (stereo not drawn)
9 | 290 µM | c1ccc2cc(CNc3nc(NCc4ccc5ccccc5c4)nc(NCc4ccc5ccccc5c4)n3)ccc2c1
10 | > 1000 µM | CC(C)CNC(=O)[C@]1(C)C[C@](C)(C(=O)NCC(C)C)C[C@](C)(C(=O)NCC(C)C)C1
11 | 650 µM | CC(C)CCc1nc(NCC(C)C)nc(NCC(C)C)n1
12 | 49 µM | c1ccc(CCc2cc(NCc3ccccc3)nc(NCc3ccccc3)n2)cc1
13 | 790 µM | CC(C)CCc1nc(NCC(C)C)nc(N(CC(=O)O)CC(C)C)n1
